Assay results from patent US9856259B2, “Heterocyclic compounds and uses thereof” (Plexxikon Inc., priority 2014, dated 2018).

Each compound was assayed against T1, BRD4-BD12 (Homo sapiens, UniProt O60885) (assay: Alphascreen binding assay, BRD4(1 2) H4). Conditions: BRD4 dual bromodomains with acetylated Histone 4 peptide, read-out: Biochemical activity (IC50 μM) BRD4(1 2) H4.
T1 construct: dual bromodomains (BRD4-BD12 (1-477), BRD4-BD12 (1-472)); six-His tag (N); made in house; host or cells: E. coli BL21-CodonPlus (DE3)
Protocol: Binding of compounds of formula (I) with bromodomain 2, 3 4 was assessed using Alphascreen binding assay. The inhibition of the interaction between bromodomain and its acetylated target protein (Filippakopoulos P et al. 2012) was measured quantitatively using recombinant BRD proteins, an acetylated Histone 4 peptide and AlphaScreen™ technology. In absence of inhibition the BRD protein bound to AlphaScreen™ nickel chelate acceptor beads can interact with the acetylated Histone 4 peptide which is immobilized by the AlphaScreen™ Streptavidin coated beads. This interaction brings donor and acceptor beads in proximity. The close proximity allows the singlet oxygen produced by laser excitation of the donor beads to reach the acceptor beads and generate a luminescence signal. BRD inhibitors result in a decrease in the proximity signal through an inhibition of the BRD acetylated peptide interaction.
Recombinant human bromodomains containing the N-terminal bromodomain (BRD2-BD1 (71-194), BRD3-BD1 (24-144) and BRD4-BD1 (44-164)) or dual bromodomains (BRD4-BD12 (1-477), BRD4-BD12 (1-472)) were prepared and purified as described in protein expression and purification session. The peptide is human Histone H41-21K5AcK8AcK12AcK16Ac-Biotin (Anaspec Calif., USA).
Protocol for BRD2, BRD3 and BRD4 assay: All components are prepared in buffer composed of 50 mM HEPES pH 7.5, 100 mM NaCl, 0.01% BSA, 0.01% Triton X-100, 2 mM DTT. 7 μL of Bromodomain protein and 7 μL of peptide are added to wells containing 1 μL of various concentrations of test compounds of formula (I) or DMSO vehicle in an Alphaplate (PerkinElmer Ga., USA) and incubated for 1 hour at room temperature. 4 μL donor and acceptor bead mixture is then added with final concentrations of 7.5 μg/ml. 30 minutes after bead addition, Alpha signal is read on the Envision spectrometer (λEx 680 nm, λEm 520-620 nm). Final concentrations of bromodomain proteins and peptide are as shown below.
All data was normalized to the mean of 16 high and 16 low control wells on each plate. A four parameter curve fit of the following formula was then applied: Y=a+(b−a)/(1+(x/c)^d) Where ‘a’ is the minimum, ‘b’ is the maximum, ‘c’ is the pIC50 and ‘d’ is the Hill slope. Protein Expression and Purification
Recombinant human bromodomains containing the N-terminal bromodomain (BRD2-BD1 (71-194), BRD3-BD1 (24-144) and BRD4-BD1 (44-164)) or dual bromodomains (BRD4-BD12 (1-477), BRD4-BD12 (1-472)) were expressed in E. coli cells (in a modified pET vector) with an N-terminal six-His tag and purified using a combination of both IMAC (Ni-affinity) and size exclusion chromatography steps.
Recombinant BRD proteins were expressed using the E. coli strain BL21-CodonPlus (DE3) (Agilent Technologies CA, USA). Cells were grown in Terrific Broth (TB) media to an OD600 of 1.2 at 37° C. at which temperature was reduced to 25° C., protein was induced with 1.0 mM IPTG for 12-18 hours and harvested by centrifugation at 8000×g for 20 minutes. Cells were re-suspended in 0.1M KPO4 pH 8.0, 250 mM NaCl, 10% Glycerol, 0.75% NP-40, 25 mM Imidazole, 5 mM BME with 0.2 mg/ml Lysosyme, 2.0 mM PMSF, 25 μg/ml DNAse I, incubated on ice for 30 minutes and lyzed with a cell disruptor (MicroFluidics MA, USA). The lysate was clarified by centrifugation at 20,000×g for 2 hours. The protein was captured with Ni-NTA resin (Life Technologies, USA). Contaminating proteins were washed off with 25 mM Tris-HCl pH 8.3, 250 mM NaCl, 12% Glycerol and 50 mM Imidazole. Following 3× wash steps, protein was eluted step wise using a 50 mM HEPES pH 7.5, 500 mM NaCl and 400 mM Imidazole. The protein was further purified using Gel Filtration column 26/600 Superdex 200 (GE Biosciences N.J., USA) in 50 mM HEPES pH 7.5, 250 mM NaCl. The protein was aliquoted and flash-frozen in liquid Nitrogen.

Compound	IC50 [µM]
COC(=O)Cc1ccc(-c2nn([C@@H](C)c3ccccn3)c3cc(-c4c(C)noc4C)ccc23)cc1 [Compound P-2012, methyl 2-[4-[6-(3,5-dimethylisoxazol-4-yl)-1-[(1S)-1-(2-pyridyl)ethyl]indazol-3-yl]phenyl]acetate]	≤ 1

These compounds were tested on MV-4-11 (assay: Oncology cell growth assay, MV-4-11 3 d growth). Conditions: Homo sapiens, MV4-11; MV-4-11 cells, 72 hours, CellTiter Glo; read-out: Cell activity (IC50 μM) MV-4-11 3 d-Growtb.
Assay type: cell-based
Protocol: (§1) In this study, we test compounds in different cancer cell lines. MV-4-11 and MOLM-13 are AML cell lines harboring a MLL-AF4 and MLL-AF9 translocation, respectively. MM.1S is a multiple myeloma cell line. SK—N-AS, IMR-32 and SK-N-BE(2) are neuroblastoma cell lines. IMR-32 and SK-N-BE(2) cell lines harbor MYCN amplifications.
(§2) MV-4-11, MM.1S, IMR-32, SK-N-AS and SK-N-BE(2) were obtained from ATCC (IL, USA) and MOLM-13 were purchased from DSMZ (Braunschweig, German). Cells are cultured as recommended by their sources. For growth inhibition studies 3000 cells are seeded in wells of a 96-well plate in 75 μL of culture media. After several hours, growth media containing compounds of formula (I) are added to the wells. Compound at a maximal concentration of 5 mM was serially diluted 1:3 for a total of 8 point titration with DMSO as a control. A 1 μL aliquot of each dilution point is added to 249 μL growth media and 75 μL is added to each well containing cells, providing 10 μM compound at the maximum concentration point. The final concentration of DMSO in all wells is 0.2%. Cells are incubated for 72 hours, and 25 μL of CellTiter Glo Reagent (Promega Ga., USA) is added to each well. Plates are shaken for approximately 10 minutes and chemiluminescent signal is read on Tecan microplate reader. The measured luminescence correlates directly with cell number.
(§3) All data is normalized to the mean of eight DMSO high control wells on each plate. A four parameter curve fit of the following formula was then applied: Y=a+(b−a)/(1+(x/c)^d) Where ‘a’ is the minimum, ‘b’ is the maximum, ‘c’ is the pIC50 and ‘d’ is the Hill slope. […] Myc Reporter Assay

Compound	IC50 [µM]
COC(=O)Cc1ccc(-c2nn([C@@H](C)c3ccccn3)c3cc(-c4c(C)noc4C)ccc23)cc1 [Compound P-2012, methyl 2-[4-[6-(3,5-dimethylisoxazol-4-yl)-1-[(1S)-1-(2-pyridyl)ethyl]indazol-3-yl]phenyl]acetate]	≤ 1

What follows are compounds tested on cancer cell lines / MV-4-11 Myc reporter cell line (assay: Bromodomain cell assays of Example 8 (at least one of them)). Conditions: Homo sapiens, MV4-11; at least one of the bromodomain cell assays described in Example 8.
Assay type: cell-based
Protocol: as §1, §2, §3
In MV-4-11 cells, BRD2, BRD3 and BRD4 bind to the promoter region of MYC and regulate its transcription (Dawson M A et al. 2011). The literature bromodomain inhibitor iBET 151 could disrupt BRD4 recruitment to the MYC promoter and subsequently downregulate c-myc transcription (Dawson M A et al. 2011). Myc protein is a transcription factor that heterodimerizes with an obligatory partner Max and regulates the transcription of genes important for cell proliferation, differentiation, and apoptosis. This Myc reporter assay is used to monitor the inhibitory effect of compound of formula (I) on Myc dependent gene expression. Effective compounds could have potential therapeutic effects in Myc-driven tumors.
The MV-4-11 Myc reporter cell line is established by infecting MV-4-11 with VSV-g pseudotyped lentivirus expressing the firefly luciferase gene under the control of a minimal (m) CMV promoter and tandem repeats of the E-box transcriptional response element (TRE) (Qiagen IL, USA) and selecting cells in 2.5 μg/ml Puromycin.
The MV-4-11 Myc reporter cell line is maintained in Iscove's Modified Dulbecco's Medium containing 10% FBS, 1% PenStep and 2.5 μg/ml Puromycin. Cells are incubated at 37° C. in a humidified atmosphere with 5% CO2. 25,000 cells are seeded in 96-well plate in 50 μL of culture media. After several hours, growth media containing 2× compounds are added to the wells. Compound at a maximal concentration of 5 mM is serially diluted 1:3 for a total of 8 point titration. A 1 μl aliquot of each dilution point is added to 249 μl growth media and 50 μl is added to each well containing cells, providing 10 μM compound at the maximum concentration point. DMSO treated cells serve as a high control and 10 μM JQ1 treated cells serve as a low control. Cells are incubated for a further 24 hours and 25 μL of CellTiter-Fluo Reagent (Promega Ga., USA) is added to each well. Plates are shaken for approximately 2 minutes and incubated at 37° C. for 0.5 hour. Fluorescence signal is read in a Tecan Plate reader (λex=400 nm, λcm=505 nm). 25 μL of One-Glo Reagent (Promega Ga., USA) is then added to the plates. Chemiluminescent signal is read on Tecan plate reader. Values from the wells with no cells are subtracted from all samples for background correction. […]

Compound	IC50 [µM]
COC(=O)Cc1ccc(-c2nn([C@@H](C)c3ccccn3)c3cc(-c4c(C)noc4C)ccc23)cc1 [Compound P-2012, methyl 2-[4-[6-(3,5-dimethylisoxazol-4-yl)-1-[(1S)-1-(2-pyridyl)ethyl]indazol-3-yl]phenyl]acetate]	< 10
Cc1noc(C)c1-c1cnc2c(-c3ccc(C(=O)O)cc3)nn([C@@H](C)c3ccccn3)c2c1 [Compound P-2093, 4-[6-(3,5-dimethylisoxazol-4-yl)-1-[(1S)-1-(2-pyridyl)ethyl]pyrazolo[4,3-b]pyridin-3-yl]benzoic acid]	< 10
Cc1noc(C)c1-c1cnc2c(-c3ccc(CC(=O)O)cc3)nn([C@@H](C)c3ccccn3)c2c1 [Compound P-2094, 2-[4-[6-(3,5-dimethylisoxazol-4-yl)-1-[(1S)-1-(2-pyridyl)ethyl]pyrazolo[4,3-b]pyridin-3-yl]phenyl]acetic acid]	< 10
Cc1noc(C)c1-c1ccc2[nH]nc(Cc3ccccc3)c2c1 [Compound P-2035, 4-(3-benzyl-1H-indazol-5-yl)-3,5-dimethyl-isoxazole]	< 10
CCOC(=O)c1ccc(-n2nc(Cc3ccccc3)c3cc(-c4c(C)noc4C)cnc32)c(F)c1 [Compound P-2101, ethyl 4-[3-benzyl-5-(3,5-dimethylisoxazol-4-yl)pyrazolo[3,4-b]pyridin-1-yl]-3-fluoro-benzoate]	< 10
Cc1noc(C)c1-c1ccc2c(c1)c(Cc1ccccc1)nn2-c1ccc(C(=O)O)cc1F [Compound P-2037, 4-[3-benzyl-5-(3,5-dimethylisoxazol-4-yl)indazol-1-yl]-3-fluoro-benzoic acid]	< 10
CCOC(=O)c1ccc(-n2nc(Cc3ccccc3)c3cc(-c4c(C)noc4C)ccc32)c(F)c1 [Compound P-2036, ethyl 4-[3-benzyl-5-(3,5-dimethylisoxazol-4-yl)indazol-1-yl]-3-fluoro-benzoate]	< 10
Cc1noc(C)c1-c1cnc2c(-c3cnn(CC(F)(F)F)c3)nn([C@@H](C)c3ccccn3)c2c1 [Compound P-2098, 3,5-dimethyl-4-[1-[(1S)-1-(2-pyridyl)ethyl]-3-[1-(2,2,2-trifluoroethyl)pyrazol-4-yl]pyrazolo[4,3-b]pyridin-6-yl]isoxazole]	< 10
Cc1noc(C)c1-c1cnc2c(-c3cnn(C)c3)nn([C@@H](C)c3ccccn3)c2c1 [Compound P-2099, 3,5-dimethyl-4-[3-(1-methylpyrazol-4-yl)-1-[(1S)-1-(2-pyridyl)ethyl]pyrazolo[4,3-b]pyridin-6-yl]isoxazole]	< 10
Cc1noc(C)c1-c1cnc2[nH]nc(Cc3ccccc3)c2c1 [Compound P-2100, 4-(3-benzyl-1H-pyrazolo[3,4-b]pyridin-5-yl)-3,5-dimethyl-isoxazole]	< 10
Cc1noc(C)c1-c1cnc2c(-c3ccc(C(=O)O)cc3)nn(C(c3ccccc3)c3ccccn3)c2c1 (centres unmarked) [Compound P-2096, 4-[6-(3,5-dimethylisoxazol-4-yl)-1-[phenyl(2-pyridyl)methyl]pyrazolo[4,3-b]pyridin-3-yl]benzoic acid]	< 10
Cc1noc(C)c1-c1cnc2c(c1)c(Cc1ccccc1)nn2-c1ccc(C(=O)O)cc1F [Compound P-2102, 4-[3-benzyl-5-(3,5-dimethylisoxazol-4-yl)pyrazolo[3,4-b]pyridin-1-yl]-3-fluoro-benzoic acid]	< 10
Cc1noc(C)c1-c1cnc2c(I)nn(C(c3ccccc3)c3ccccn3)c2c1 (centres unmarked) [Compound P-2095, 4-[3-iodo-1-[phenyl(2-pyridyl)methyl]pyrazolo[4,3-b]pyridin-6-yl]-3,5-dimethyl-isoxazole]	< 10
Cc1noc(C)c1-c1cnc2c(I)nn([C@@H](C)c3ccccn3)c2c1 [Compound P-2091, 4-[3-iodo-1-[(1S)-1-(2-pyridyl)ethyl]pyrazolo[4,3-b]pyridin-6-yl]-3,5-dimethyl-isoxazole]	< 10
Cc1noc(C)c1-c1cnc2c(-c3ccc(CC(=O)O)cc3)nn(C(c3ccccc3)c3ccccn3)c2c1 (centres unmarked) [Compound P-2097, 2-[4-[6-(3,5-dimethylisoxazol-4-yl)-1-[phenyl(2-pyridyl)methyl]pyrazolo[4,3-b]pyridin-3-yl]phenyl]acetic acid]	< 10
